Experimental data published in patent US9758526B2, “Quinoline-substituted compound” (TAIHO PHARMACEUTICAL CO., LTD., priority 2013, dated 2017).

Tests used:
EGFR (T790M/L858R) = target: T1, EGFR (T790M/L858R) (Homo sapiens, UniProt P00533, L858R/T790M); test: EGFR (T790M/L858R) kinase inhibitory activity; format: biochemical; conditions: ATP 1 μM, 25° C. for 120 minutes
T1 construct: purchased Carna Biosciences, Inc
Description: The inhibitory activities of the compounds of the present invention against EGFR (T790M/L858R) kinase activity were measured.
(§1) Among the materials of the inhibitory activity measurement, the substrate peptide and the kinase protein were obtained as follows. A peptide with biotinylated N-terminus (biotin-EEPLYWSFPAKKK) was synthesized with reference to FL-Peptide 22, a reagent for LabChip® series of PerkinElmer, Inc. For the kinase protein, a purified recombinant human EGFR (T790M/L858R) protein of Carna Biosciences, Inc. was purchased.
(§2) The inhibitory activity measurement was performed as follows. The compounds of the present invention were individually dissolved in dimethyl sulfoxide (DMSO), and serial dilutions of these compounds were prepared using DMSO. Subsequently, a solution containing the substrate peptide (final concentration: 250 nM), magnesium chloride (final concentration: 10 mM), manganese chloride (final concentration: 10 mM), and ATP (final concentration: 1 μM) in a buffer solution for kinase reaction (Carna Biosciences, Inc.) was mixed with the dilutions of the compounds (final concentration of DMSO upon kinase reaction: 2.5%) or DMSO (final concentration: 2.5%). EGFR (T790M/L858R) protein was further added thereto, and the mixtures were incubated at 25° C. for 120 minutes to carry out a kinase reaction. EDTA was added thereto to a final concentration of 24 mM to thereby terminate the reaction. A phosphorylated thyrosine detection solution containing europium (Eu)-labeled anti-phosphorylated tyrosine antibody PT66 (PerkinElmer, Inc.) and SureLight APC-SA (PerkinElmer, Inc.) was added to the reaction mixtures, and the mixtures were allowed to stand at room temperature for 2 hours or more. For the background, a sample to which EDTA was added before addition of EGFR (T790M/L858R) protein was incubated at 25° C. for 120 minutes, using DMSO instead of the DMSO solution of the compound. The detection solution was also added to this sample, and the mixture was allowed to stand for 2 hours or more. Finally, for all of the test samples, the amount of fluorescence at the time of irradiation of excitation light having a wavelength of 337 nm was measured at dual wavelengths of 620 nm and 665 nm by PHERAstar FS (BMG LABTECH), and a ratio of the fluorescence amounts at the two wavelengths was obtained as data.
(§3) Based on the above rates, phosphorylation inhibition rates (%) were calculated for the samples to which various concentrations of the compound solutions were added. Finally, the obtained reaction inhibition rates (%) at the respective concentrations were plotted for each compound, and the IC50 value (nM), which is a compound concentration at which phosphorylation by EGFR (T790M/L858R) is inhibited by 50%, was determined using XLfit curve-fitting software (IDBS).

EGFR (d746-750/T790M) = target: T2, EGFR (d746-750/T790M) (Homo sapiens, UniProt P00533, DEL746-750/T790M); test: EGFR (d746-750/T790M) kinase inhibitory activity; format: biochemical; conditions: ATP 1.5 μM
T2 construct: purchased Carna Biosciences, Inc
Description: as §1, §2, §3
The inhibitory activities of the compounds of the present invention against EGFR (d746-750/T790M) kinase activity were measured.
The materials, the measurement method, and the data analysis method were substantially the same as those shown in the above description regarding “Measurement of EGFR (T790M/L858R) Kinase Inhibitory Activity,” except that a purified recombinant human EGFR (d746-750/T790M) protein purchased from Carna Biosciences, Inc. was used as the kinase protein, and the measurement was performed with an ATP final concentration of 1.5 μM. Finally, the IC50 value (nM) of each compound with respect to EGFR (d746-750/T790M) was determined by data analysis.

EGFR (L858R) = target: T3, EGFR (L858R) (Homo sapiens, UniProt P00533, L858R); test: EGFR (L858R) kinase inhibitory activity; format: biochemical; conditions: ATP 4 μM
T3 construct: purchased Carna Biosciences, Inc
Description: as §1, §2, §3
The inhibitory activities of the compounds of the present invention against EGFR (L858R) kinase activity were measured.
The materials, the measurement method, and the data analysis method were substantially the same as those shown in the above description regarding “Measurement of EGFR (T790M/L858R) Kinase Inhibitory Activity,” except that a purified recombinant human EGFR (L858R) protein purchased from Carna Biosciences, Inc. was used as the kinase protein, and the measurement was performed with ATP at a final concentration of 4 μM. Finally, the IC50 value (nM) of each compound with respect to EGFR (L858R) was determined by data analysis.

EGFR (d746-750) = target: T4, EGFR (d746-750) (Homo sapiens, UniProt P00533, DEL746-750); test: EGFR (d746-750) kinase inhibitory activity; format: biochemical; conditions: ATP 5 μM, kinase reaction 90 minutes
T4 construct: purchased Carna Biosciences, Inc
Description: as §1, §2, §3
The inhibitory activities of the compounds of the present invention against EGFR (d746-750) kinase activity were measured.
The materials, the measurement method, and the data analysis method were substantially the same as those shown in the above description regarding “Measurement of EGFR (T790M/L858R) Kinase Inhibitory Activity,” except that a purified recombinant human EGFR (d746-750) protein purchased from Carna Biosciences, Inc. was used as the kinase protein, the measurement was performed with ATP at a final concentration of 5 μM, and the incubation for the kinase reaction was performed for 90 minutes. Finally, the IC50 value (nM) of each compound with respect to EGFR (d746-750) was determined by data analysis.

EGFR (WT) = target: T5, EGFR (WT) (Homo sapiens, UniProt P00533); test: EGFR (WT) kinase inhibitory activity; format: biochemical; conditions: substrate peptide 500 nM
T5 construct: expressing a cytoplasmic domain of human EGFR (WT) with its N-terminus fused to a FLAG tag; FLAG (N); made in house; host or cells: insect Sf9 cells, baculovirus expression system
Description: as §1, §2, §3
The inhibitory activities of the compounds of the present invention against EGFR (WT) kinase activity were measured.
The materials, the measurement method, and the data analysis method were substantially the same as those shown in the above description regarding “Measurement of EGFR (T790M/L858R) Kinase Inhibitory Activity,” except that a kinase protein prepared by expressing a cytoplasmic domain of human EGFR (WT) with its N-terminus fused to a FLAG tag in insect Sf9 cells using a baculovirus expression system and then purifying it with anti-FLAG antibody agarose (Sigma-Aldrich) was used as the kinase protein, the final concentration of the substrate peptide was 500 nM, and the final concentration of ATP was […]. Finally, the IC50 value (nM) of each compound with respect to EGFR (WT) was determined by data analysis.

[1] = system: NCI-H1975 expressing EGFR (T790M/L858R); test: Growth inhibition, NCI-H1975 expressing EGFR (T790M/L858R); format: cell-based; conditions: Homo sapiens, NCI-H1975, 72 h; cultured three days, CellTiter-Glo
Description: (§4) (1) A human […] lung cancer cell line NCI-H1975 expressing EGFR (T790M/L858R), (2) a human non-small cell lung cancer cell line HCC827 expressing EGFR (d746-750), and (3) a human epithelioid cancer cell line A431 expressing EGFR (WT) were each suspended in complete growth medium recommended by ATCC. The cell suspensions were seeded in each well of a 384-well flat microplate or a 96-well flat plate, and cultured in an incubator containing 5% carbon dioxide gas at 37° C. for one day. Each compound of the present invention was dissolved in DMSO, and serial dilutions of the test compound were prepared using DMSO (to a concentration 500 times the final concentration). The DMSO solution of the test compound or DMSO was diluted with complete growth medium, and the resulting solution was added to each well of the cell culture plate so that the final concentration of DMSO was 0.2%. Then, the cells were cultured in an incubator containing 5% carbon dioxide gas at 37° C. for three days. The number of cells was measured before the addition of the DMSO solution of the test compound, as well as after addition and culture by using a CellTiter-Glo Assay® (produced by Promega) according to a protocol recommended by Promega.
(§5) For each cell, the cell growth inhibition rates of the wells to which the test compounds at various concentrations were added were calculated by the following formula. Then, the obtained inhibition rates (%) at the respective concentrations were plotted for each test compound, and the GI50 value (nM), which is a test compound concentration at which the cell growth can be inhibited by 50%, was determined using XLfit curve-fitting software (IDBS). • Cell Growth Inhibition Rate (%)=(C−T)/(C−CO)×100 • T: Luminescence intensity of well cultured for three days after addition of the test compound solution • C: Luminescence intensity of well cultured for three days after addition of DMSO • C0: Luminescence intensity of well before addition of the test compound solution

[2] = system: HCC827 expressing EGFR (d746-750); test: Growth inhibition, HCC827 expressing EGFR (d746-750); format: cell-based; conditions: Homo sapiens, HCC827, 72 h; cultured three days, CellTiter-Glo
Description: as §4, §5

[3] = system: A431 expressing EGFR (WT); test: Growth inhibition, A431 expressing EGFR (WT); format: cell-based; conditions: Homo sapiens, A-431, 72 h; cultured three days, CellTiter-Glo
Description: as §4, §5

T3 sequence (P00533 25-1210 L858R): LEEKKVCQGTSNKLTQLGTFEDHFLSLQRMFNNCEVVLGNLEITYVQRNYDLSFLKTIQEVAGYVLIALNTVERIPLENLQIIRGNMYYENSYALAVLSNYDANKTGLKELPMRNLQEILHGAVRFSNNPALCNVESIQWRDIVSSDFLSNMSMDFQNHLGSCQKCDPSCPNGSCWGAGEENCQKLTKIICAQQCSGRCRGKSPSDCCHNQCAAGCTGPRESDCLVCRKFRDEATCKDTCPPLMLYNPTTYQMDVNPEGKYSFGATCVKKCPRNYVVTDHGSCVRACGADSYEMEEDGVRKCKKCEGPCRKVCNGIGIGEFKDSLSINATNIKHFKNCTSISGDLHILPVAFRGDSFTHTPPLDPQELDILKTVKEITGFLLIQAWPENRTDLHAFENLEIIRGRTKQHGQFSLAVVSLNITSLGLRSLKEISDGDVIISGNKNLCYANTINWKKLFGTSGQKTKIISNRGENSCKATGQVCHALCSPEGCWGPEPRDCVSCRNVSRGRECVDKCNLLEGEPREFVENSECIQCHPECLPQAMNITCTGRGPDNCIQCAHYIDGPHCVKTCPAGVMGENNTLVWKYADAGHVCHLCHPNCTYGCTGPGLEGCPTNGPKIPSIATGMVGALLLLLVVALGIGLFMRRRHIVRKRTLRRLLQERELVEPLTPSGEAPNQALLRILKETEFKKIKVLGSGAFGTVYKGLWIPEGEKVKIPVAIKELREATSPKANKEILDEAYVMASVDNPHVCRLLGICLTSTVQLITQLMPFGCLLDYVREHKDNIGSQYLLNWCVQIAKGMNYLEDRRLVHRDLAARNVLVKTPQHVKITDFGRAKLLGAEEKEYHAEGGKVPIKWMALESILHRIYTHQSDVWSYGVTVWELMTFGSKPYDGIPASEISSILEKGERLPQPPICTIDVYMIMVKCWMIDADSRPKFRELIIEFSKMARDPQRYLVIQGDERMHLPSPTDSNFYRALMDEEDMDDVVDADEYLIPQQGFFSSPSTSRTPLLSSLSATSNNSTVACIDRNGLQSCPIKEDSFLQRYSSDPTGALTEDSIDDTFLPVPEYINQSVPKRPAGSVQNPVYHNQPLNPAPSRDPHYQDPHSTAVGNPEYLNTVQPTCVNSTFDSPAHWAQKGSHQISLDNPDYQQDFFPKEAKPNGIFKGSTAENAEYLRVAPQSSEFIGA
T1 sequence (P00533 25-1210 T790M/L858R): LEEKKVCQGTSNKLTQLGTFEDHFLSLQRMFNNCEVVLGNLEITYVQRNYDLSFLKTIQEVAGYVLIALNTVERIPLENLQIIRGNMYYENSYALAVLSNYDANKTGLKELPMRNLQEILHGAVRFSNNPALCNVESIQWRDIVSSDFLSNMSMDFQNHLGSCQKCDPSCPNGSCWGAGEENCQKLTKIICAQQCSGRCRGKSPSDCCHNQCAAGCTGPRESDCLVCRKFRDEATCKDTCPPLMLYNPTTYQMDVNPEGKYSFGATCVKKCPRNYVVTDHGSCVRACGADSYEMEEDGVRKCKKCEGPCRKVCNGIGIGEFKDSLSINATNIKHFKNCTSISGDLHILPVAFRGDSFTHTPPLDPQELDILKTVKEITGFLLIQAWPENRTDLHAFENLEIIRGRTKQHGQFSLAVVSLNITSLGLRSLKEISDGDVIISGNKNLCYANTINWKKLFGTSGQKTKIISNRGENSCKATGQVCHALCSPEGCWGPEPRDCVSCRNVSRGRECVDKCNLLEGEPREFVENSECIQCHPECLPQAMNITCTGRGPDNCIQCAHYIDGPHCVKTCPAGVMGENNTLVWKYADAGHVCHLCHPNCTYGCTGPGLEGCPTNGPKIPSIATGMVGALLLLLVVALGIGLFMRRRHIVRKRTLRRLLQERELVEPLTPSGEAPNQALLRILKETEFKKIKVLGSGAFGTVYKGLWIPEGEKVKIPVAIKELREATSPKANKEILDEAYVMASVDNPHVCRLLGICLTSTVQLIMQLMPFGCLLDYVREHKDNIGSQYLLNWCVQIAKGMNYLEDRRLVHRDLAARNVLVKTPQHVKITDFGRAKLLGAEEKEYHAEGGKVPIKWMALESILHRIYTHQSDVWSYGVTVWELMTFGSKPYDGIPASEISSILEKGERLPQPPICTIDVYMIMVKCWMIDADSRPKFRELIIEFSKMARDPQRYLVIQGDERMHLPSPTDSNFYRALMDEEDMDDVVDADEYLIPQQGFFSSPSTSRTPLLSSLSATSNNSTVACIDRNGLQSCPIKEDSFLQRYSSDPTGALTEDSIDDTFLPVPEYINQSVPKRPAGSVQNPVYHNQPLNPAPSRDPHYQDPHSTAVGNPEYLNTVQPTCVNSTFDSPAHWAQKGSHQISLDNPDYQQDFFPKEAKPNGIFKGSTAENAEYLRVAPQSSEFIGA
T2 sequence (P00533 with tags, fused parts or gaps DEL746-750/T790M limits assumed): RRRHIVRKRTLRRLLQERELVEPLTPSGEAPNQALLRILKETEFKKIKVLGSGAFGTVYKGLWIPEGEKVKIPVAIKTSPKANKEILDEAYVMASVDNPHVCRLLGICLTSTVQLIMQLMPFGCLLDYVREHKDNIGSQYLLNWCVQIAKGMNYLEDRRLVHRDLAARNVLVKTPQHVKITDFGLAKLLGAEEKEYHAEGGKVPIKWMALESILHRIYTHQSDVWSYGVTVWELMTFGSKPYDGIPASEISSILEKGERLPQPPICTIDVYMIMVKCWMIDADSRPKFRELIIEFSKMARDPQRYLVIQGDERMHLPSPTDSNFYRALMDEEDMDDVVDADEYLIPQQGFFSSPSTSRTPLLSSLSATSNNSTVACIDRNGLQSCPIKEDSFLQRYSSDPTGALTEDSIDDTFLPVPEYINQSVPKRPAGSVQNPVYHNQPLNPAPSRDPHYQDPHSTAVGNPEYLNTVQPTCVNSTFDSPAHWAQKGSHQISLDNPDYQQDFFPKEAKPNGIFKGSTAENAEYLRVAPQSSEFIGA
T5 sequence (P00533 669-1210 limits assumed): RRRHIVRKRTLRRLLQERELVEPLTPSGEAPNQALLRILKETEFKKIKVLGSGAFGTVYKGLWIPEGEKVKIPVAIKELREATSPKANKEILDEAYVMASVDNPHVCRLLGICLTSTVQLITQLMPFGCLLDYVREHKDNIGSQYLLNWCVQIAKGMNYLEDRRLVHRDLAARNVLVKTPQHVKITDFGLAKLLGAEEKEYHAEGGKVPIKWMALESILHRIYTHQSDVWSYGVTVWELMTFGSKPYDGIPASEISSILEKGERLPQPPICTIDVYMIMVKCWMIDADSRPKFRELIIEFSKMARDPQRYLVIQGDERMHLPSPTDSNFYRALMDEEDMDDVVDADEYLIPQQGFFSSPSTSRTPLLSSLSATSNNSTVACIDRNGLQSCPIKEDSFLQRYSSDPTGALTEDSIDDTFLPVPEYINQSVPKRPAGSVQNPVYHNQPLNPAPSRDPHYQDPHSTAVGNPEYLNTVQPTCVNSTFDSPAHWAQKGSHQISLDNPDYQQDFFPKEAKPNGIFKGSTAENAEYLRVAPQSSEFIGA
T4 sequence (P00533 with tags, fused parts or gaps DEL746-750 limits assumed): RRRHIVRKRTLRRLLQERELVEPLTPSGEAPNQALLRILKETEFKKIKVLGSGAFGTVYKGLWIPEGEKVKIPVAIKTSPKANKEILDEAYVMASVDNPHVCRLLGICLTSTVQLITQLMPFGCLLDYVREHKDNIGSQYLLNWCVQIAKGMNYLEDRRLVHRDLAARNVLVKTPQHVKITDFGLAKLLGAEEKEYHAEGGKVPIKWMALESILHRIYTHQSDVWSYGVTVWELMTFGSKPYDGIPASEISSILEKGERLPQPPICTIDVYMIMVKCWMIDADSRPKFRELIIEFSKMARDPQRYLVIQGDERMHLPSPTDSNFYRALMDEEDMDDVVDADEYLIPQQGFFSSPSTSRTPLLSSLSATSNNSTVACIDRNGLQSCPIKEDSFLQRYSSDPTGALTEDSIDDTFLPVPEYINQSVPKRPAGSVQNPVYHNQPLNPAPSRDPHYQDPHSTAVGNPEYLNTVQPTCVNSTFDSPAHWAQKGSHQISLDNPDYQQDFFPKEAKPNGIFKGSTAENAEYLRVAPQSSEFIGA

Row | Compound | IC50 (EGFR (T790M/L858R)) [nM] | IC50 (EGFR (d746-750/T790M)) [nM] | IC50 (EGFR (L858R)) [nM] | IC50 (EGFR (d746-750)) [nM] | IC50 (EGFR (WT)) [nM] | GI50 [1] [nM] | GI50 [2] [nM] | GI50 [3] [nM]
1 | C=CC(=O)N[C@@H]1C=C(C)c2c(-c3cnc4ccccc4c3)c3c(N)ncnc3n2C1 [Example 16, (R)—N-(4-amino-6-methyl-5-(quinolin-3-yl)-8,9-dihydropyrimido[5,4-b]indolizin-8-yl)acrylamide] | 11 | 3 | 39 | 15 | 480 | 600 | 27 | > 10000
2 | C=CC(=O)N[C@@H]1CC(=C)c2c(-c3cnc4ccccc4c3)c3c(N)ncnc3n2C1 [Example 17, (R)—N-(4-amino-6-methylene-5-(quinolin-3-yl)-6,7,8,9-tetrahydropyrimido[5,4-b]indolizin-8-yl)acrylamide] | 23 | 11 | 50 | 39 | 580 | 2900 | 160 | > 10000
3 | C=CC(=O)N[C@@H]1CCn2c(c(-c3cnc4ccccc4c3)c3c(N)ncnc32)C(=C)C1 [Example 18, (S)—N-(4-amino-6-methylene-5-(quinolin-3-yl)-7,8,9,10-tetrahydro-6H-pyrimido[5′,4′:4,5]pyrrolo[1,2-a]azepin-8-yl)acrylamide] | 4.7 | 1.3 | 12 | 4.5 | 68 | 160 | 8.9 | 4000
4 | C=CC(=O)N[C@H]1C/C(=C\C)c2c(-c3cnc4ccccc4c3)c3c(N)ncnc3n2C1 [Example 19, (S,E)-N-(4-amino-6-ethylidene-5-(quinolin-3-yl)-6,7,8,9-tetrahydropyrimido[5,4-b]indolizin-8-yl)acrylamide] | 0.26 | 0.28 | 0.27 | 0.42 | 2.2 | 49 | 5.6 | 990
5 | C=CC(=O)N(C)[C@H]1Cn2c(c(-c3cnc4ccccc4c3)c3c(N)ncnc32)C1=C [Example 21, (R)—N-(4-amino-6-methylene-5-(quinolin-3-yl)-7,8-dihydro-6H-pyrimido[5,4-b]pyrrolizin-7-yl)-N-methylacrylamide] | 0.6 | 0.34 | 1.1 | 0.72 | 7.8 | 56 | 8.1 | 2600
